Results on eight compounds are retold here after EP4656642A1, “ESTROGEN RECEPTOR PROTEOLYSIS TARGETING CHIMERA COMPOUND AND USE THEREOF” (GAN & LEE PHARM CO., LTD, priority 2023, dated 2024).

SMILES strings stand for the structures.

Common to all, as to format: cell-based
The target of test [1] is T1, ERα (Homo sapiens, UniProt P03372).
T1 sequence (P03372 1-595): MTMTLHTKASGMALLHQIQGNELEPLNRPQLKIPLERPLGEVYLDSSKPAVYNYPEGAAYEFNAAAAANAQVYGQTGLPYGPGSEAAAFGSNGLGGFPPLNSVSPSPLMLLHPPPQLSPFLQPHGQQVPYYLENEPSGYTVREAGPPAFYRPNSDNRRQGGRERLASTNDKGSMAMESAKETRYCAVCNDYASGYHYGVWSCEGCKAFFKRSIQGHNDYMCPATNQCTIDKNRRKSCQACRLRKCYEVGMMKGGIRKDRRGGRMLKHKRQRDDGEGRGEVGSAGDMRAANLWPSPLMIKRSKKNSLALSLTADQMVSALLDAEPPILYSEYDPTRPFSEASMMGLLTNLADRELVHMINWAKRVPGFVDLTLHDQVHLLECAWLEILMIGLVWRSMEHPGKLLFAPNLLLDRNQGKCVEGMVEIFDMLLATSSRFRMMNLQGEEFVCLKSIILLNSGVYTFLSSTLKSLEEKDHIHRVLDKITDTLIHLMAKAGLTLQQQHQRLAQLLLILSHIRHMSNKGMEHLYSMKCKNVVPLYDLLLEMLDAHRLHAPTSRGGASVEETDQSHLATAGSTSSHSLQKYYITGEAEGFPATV
Nature of the test: Degradation of ERα in MCF-7 cells (immunoblotting, 4 h). In short, it runs like this:
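MCF-7 cells treated 4 h at 37°C with compounds at 0.15-1000nM final. ERα in lysates measured by immunoblot, with band grayscale normalized to an internal reference protein. Degradation rate calculated against DMSO-treated control.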

The test system of the next test is T-47D cells. The test can be described thus: Inhibition of cell proliferation in T-47D cells (CCK-8, 6 days). The settings on record: 6 days of treatment, Table 3. In outline: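 T-47D cells at 3,000 cells/well in RPMI 1640 with 10% FBS were exposed to a concentration series of PROTAC compounds for 6 days at 37 °C, 5% CO2. Viability was read by CCK-8, and IC50 values were derived for proliferation inhibition.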

The subject of the next test is MCF-7 cells. Nature of the test: Inhibition of cell proliferation of MCF-7 cells (CCK-8, 9 days). The settings on record: treated for 9 days, CCK-8 kit (Table 6). In short, it runs like this: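 MCF-7 cells seeded at 800 cells/well in DMEM with 10% FBS, exposed to a range of compound concentrations for 9 days at 37°C, 5% CO2. Viability read by CCK-8; IC50 derived for proliferation inhibition.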

For test [2], the target named is T1, ERα. Nature of the test: Degradation of ERα in T-47D cells (immunoblotting, 4 h). Further details: host or cells: T-47D. In outline:
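T-47D cells were treated with compound (final 0.15-1000 nM, DMSO) for 4 h at 37°C, 5% CO2. Cells were lysed in RIPA buffer with protease inhibitor, and ERα protein in the cleared lysate was measured by immunoblotting.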
In general terms: A western blot detects proteins with antibodies after separation by electrophoresis.

For orientation: IC50 means the concentration needed to halve the response being measured. Higher therefore signals a need for much substance.

As to `CCC(C(=O)N1CCC2(CC1)COc1c2ccc2c1CN(C1CCC(=O)NC1=O)C2=O)N1CCC2(CCN(c3ccc([C@@H]4c5ccc(O)cc5CC[C@@H]4c4ccccc4)cc3)CC2)C1` (stereo partly drawn) [A95], the figures for the “Degradation rate (%) of ERα in MCF-7 cells” value on ERα [1] (1nM compound) and at ERα [1] (10nM compound) were 42% and 48%, respectively. Besides, the figures for the IC50 in the test with T-47D cells and with MCF-7 cells were 1.49 nM and 201 nM, respectively. Besides, the “Degradation rate (%) of ERα in T-47D cells” value at ERα [2] (1nM compound) worked out at 52%; at ERα [2] (10nM compound) it was 68%.
On to `C[C@@H]1Cc2c(ccc3[nH]ncc23)[C@@H](c2c(F)cc(N3CCC4(CCN(C(=O)CN5CCC6(CC5)COc5c6ccc6c5CN(C5CCC(=O)NC5=O)C6=O)CC4)CC3)cc2F)N1CC(F)F` (stereo partly drawn) [C13], for which the results for the “Degradation rate (%) of ERα in MCF-7 cells” value on ERα [1] (1nM compound) and at ERα [1] (10nM compound) were 41% and 62%, respectively. Also, the IC50 in the test with T-47D cells was 0.61 nM; with MCF-7 cells, 3.24 nM. Also, the “Degradation rate (%) of ERα in T-47D cells” value on ERα [2] (1nM compound) was found to be 46%; at ERα [2] (10nM compound) it was 70%.
Take `O=C1CCC(N2C(=O)c3ccc4c(c3C2=O)OCC42CCN(C(=O)CN3CCC4(CCN(c5ccc([C@@H]6c7ccc(O)cc7CC[C@@H]6c6ccccc6)cc5)CC4)C3)CC2)C(=O)N1` (stereo partly drawn) [K24]: the “Degradation rate (%) of ERα in MCF-7 cells” value was determined as 31% on ERα [1] (1nM compound) and 46% on ERα [1] (10nM compound). The results for the IC50 in the test with T-47D cells and in the test with MCF-7 cells were 1.44 nM and 32.5 nM, respectively. Further, the “Degradation rate (%) of ERα in T-47D cells” value at ERα [2] (1nM compound) is recorded as 48%; on ERα [2] (10nM compound) it was 72%.
Take `O=C1CCC(N2Cc3c(ccc4c3OCC43CCN(C(=O)C4CCN(c5ccc([C@@H]6c7ccc(O)cc7CC[C@@H]6c6ccccc6)cc5)CC4)CC3)C2=O)C(=O)N1` (stereo partly drawn) [A52]: the “Degradation rate (%) of ERα in MCF-7 cells” value at ERα [1] (1nM compound) is -22%; at ERα [1] (10nM compound), -33%. Besides, the IC50 in the test on T-47D cells was found to be 10.9 nM; with MCF-7 cells, 5680 nM. Also, the figures for the “Degradation rate (%) of ERα in T-47D cells” value at ERα [2] (1nM compound) and at ERα [2] (10nM compound) were 3% and 2%, respectively.
With `O=C1CCC(N2Cc3c(ccc4c3OCC43CCN(C4CCC5(CC4)CN(c4ccc([C@@H]6c7ccc(O)cc7CC[C@@H]6c6ccccc6)cc4)C5)CC3)C2=O)C(=O)N1` (stereo partly drawn) [L11], the “Degradation rate (%) of ERα in MCF-7 cells” value was 37% on ERα [1] (1nM compound) and 60% at ERα [1] (10nM compound). Besides, the IC50 came out at 4 nM in the test with T-47D cells and 5 nM in the test on MCF-7 cells. Moreover, the results for the “Degradation rate (%) of ERα in T-47D cells” value at ERα [2] (1nM compound) and on ERα [2] (10nM compound) were 14% and 69%, respectively.
Regarding `C[C@@H]1Cc2c(ccc3[nH]ncc23)C(c2ccc(N3CC4(CCC(N5CCC6(CC5)COc5c6ccc6c5CN(C5CCC(=O)NC5=O)C6=O)CC4)C3)cn2)N1CC(F)(F)F` (stereo partly drawn) [B49], the results for the “Degradation rate (%) of ERα in MCF-7 cells” value on ERα [1] (1nM compound) and on ERα [1] (10nM compound) were 24% and 43%, respectively. Besides, the IC50 was found to be 316 nM with T-47D cells and 7150 nM with MCF-7 cells. Also, the “Degradation rate (%) of ERα in T-47D cells” value is 42% at ERα [2] (1nM compound) and 68% at ERα [2] (10nM compound).
In the case of `O=C1CCC(N2Cc3c(ccc4c3OCC43CCN(C(=O)C(=O)N4CCC5(CCN(c6ccc([C@@H]7c8ccc(O)cc8CC[C@@H]7c7ccccc7)cc6)CC5)C4)CC3)C2=O)C(=O)N1` (stereo partly drawn) [N5], the “Degradation rate (%) of ERα in MCF-7 cells” value is recorded as 58% on ERα [1] (1nM compound) and 69% at ERα [1] (10nM compound). Moreover, the IC50 in the test with T-47D cells stood at 1.79 nM; with MCF-7 cells, 34.1 nM. In addition, the “Degradation rate (%) of ERα in T-47D cells” value stood at 63% on ERα [2] (1nM compound) and 82% at ERα [2] (10nM compound).
With `O=C1CCC(N2Cc3c(ccc4c3OCC43CCN(C(=O)CN4CC[C@]5(CCN(c6ccc([C@@H]7c8ccc(O)cc8CC[C@@H]7c7ccccc7)cc6)C5)C4)CC3)C2=O)C(=O)N1` (stereo partly drawn) [H21], the results for the “Degradation rate (%) of ERα in MCF-7 cells” value on ERα [1] (1nM compound) and on ERα [1] (10nM compound) were 18% and 37%, respectively. For the same compound, the values for the IC50 with T-47D cells and in the test on MCF-7 cells were 1.02 nM and 163 nM, respectively. In addition, the “Degradation rate (%) of ERα in T-47D cells” value on ERα [2] (1nM compound) is listed as 35%; on ERα [2] (10nM compound), 65%.
